Measured values taken from publication PMC9585728, “Antiviral activity and mechanism of the antifungal drug, anidulafungin, suggesting its potential to promote treatment of viral diseases” (BMC Medicine, 2022).
Several values for one entry are separate records, joined by “and”; a condition that tells them apart may be missing. Equal entries are not always repeated. Entries after “also recorded” stand apart in the source; their conditions may differ. Starred links: 1 amine or outer side, 2 acyl side, 3 side chain; linkers in the order of their positions; H or OH if unused. Positions of bridges follow the written chain, without caps; N, C: chain ends. Non-standard residues stand in square brackets, D forms with d. Residues, ends and D or L forms follow the SMILES beside them. *: point of attachment. hTyr(3S-OH,4S-OH,3'-OSO3H) = N[C@H](C(=O)O)[C@H](O)[C@@H](O)c1ccc(O)c(OS(=O)(=O)O)c1; pTerphenylCO(4''-OnC5H11) = CCCCCOc1ccc(-c2ccc(-c3ccc(C(=O)*)cc3)cc2)cc1; Orn(4R-OH,5R-OH) = O=C([C@H](C[C@@H](O)[C@@H](O)N[*:3])N[*:1])[*:2]; hTyr(3S-OH,4S-OH) = N[C@H](C(=O)O)[C@H](O)[C@@H](O)c1ccc(O)cc1; Pro(3S-OH,4S-Me) = C[C@H]1CN[C@H](C(=O)O)[C@H]1O; X1 = CCCCCOc1ccc(-c2cc(-c3ccc(C(=O)*)cc3)no2)cc1; Gln(3R-OH) = NC(=O)C[C@@H](O)[C@H](N)C(=O)O; Hyp = O=C(O)[C@@H]1C[C@@H](O)CN1

Columns and labels:
in vitro = conditions: African green monkey
SFTSV [1] = test: microbe, parasite or virus in culture; assay type: cell-based, severe fever with thrombocytopenia syndrome virus; conditions: for IC50 / IC90: Severe fever with thrombocytopenia syndrome virus, Vero, 24 h
SFTSV [2] = assay type: cell-based, severe fever with thrombocytopenia syndrome virus
DENV = conditions: inhibition of DENV infection; cited from earlier work
SFTSV [3] = assay type: cell-based, severe fever with thrombocytopenia syndrome virus; remark: listed apart in the source
SFTSV [4] = assay type: cell-based, severe fever with thrombocytopenia syndrome virus; remark: listed apart in the source
SARS-CoV-2 = test: microbe, parasite or virus in culture; assay type: cell-based, severe acute respiratory syndrome coronavirus 2
SFTSV [5] = assay type: cell-based, severe fever with thrombocytopenia syndrome virus; conditions: pH 5
GTV = test: microbe, parasite or virus in culture; assay type: cell-based, Guertu virus
SFTSV [6] = tested on: SFTSV; parameters: species or system A129 mice; conditions: mouse, in vivo
HSV-1 = test: microbe, parasite or virus in culture; assay type: cell-based, herpes simplex virus 1
HRTV = test: microbe, parasite or virus in culture; assay type: cell-based, Heartland virus
ZIKV = test: microbe, parasite or virus in culture; assay type: cell-based, Zika virus
CCHFV = test: microbe, parasite or virus in culture; assay type: cell-based, Crimean-Congo hemorrhagic fever virus
SFTSV [7] = assay type: cell-based, severe fever with thrombocytopenia syndrome virus; remark: listed apart in the source
SFTSV [8] = test: microbe, parasite or virus in culture; assay type: cell-based, severe fever with thrombocytopenia syndrome virus
[9] = Severe acute respiratory syndrome coronavirus 2, Vero
[10] = Orthonairovirus haemorrhagiae, Vero

In the case of `COc1c(C)c2c(c(O)c1C/C=C(\C)CCC(=O)O)C(=O)OC2` [Mycophenolic acid], the CC50 (in vitro) is reported as over 100 µM, the SI (SFTSV [1]) is reported as over 10 and the IC50 (SFTSV [1]) is reported as 0.47 µM. For the same molecule, the IC90 (SFTSV [1]) was 4.75 µM.

With `O=C1C(O)=C([C@H]2CC[C@H](c3ccc(Cl)cc3)CC2)C(=O)c2ccccc21` [Atovaqone, Atovaquone] the CC50 (in vitro) was over 100 µM, the SI (SFTSV [1]) was over 10 and the IC50 (SFTSV [1]) was 5.06 µM. For the same molecule, the IC90 (SFTSV [1]) was 10.1 µM.

For `CC[C@H](C)C[C@H](C)CCCCCCCCC(=O)N[C@H]1C[C@@H](O)[C@@H](NCCN)NC(=O)[C@@H]2[C@@H](O)CCN2C(=O)[C@H]([C@H](O)CCN)NC(=O)[C@H]([C@H](O)[C@@H](O)c2ccc(O)cc2)NC(=O)[C@@H]2C[C@@H](O)CN2C(=O)[C@H]([C@@H](C)O)NC1=O` [caspofungin], the “inhibitory effect on SFTSV infection during the entry process” value (SFTSV [2]) is given as “limited effect” and the IC50 (DENV) is given as 20.8 µM.

With `CCCCCOc1ccc(-c2ccc(-c3ccc(C(=O)N[C@H]4C[C@@H](O)[C@@H](O)NC(=O)[C@@H]5[C@@H](O)[C@@H](C)CN5C(=O)[C@H]([C@@H](C)O)NC(=O)[C@H]([C@H](O)[C@@H](O)c5ccc(O)cc5)NC(=O)[C@@H]5C[C@@H](O)CN5C(=O)[C@H]([C@@H](C)O)NC4=O)cc3)cc2)cc1` [Anidulafungin, anidulafungin] ({pTerphenylCO(4''-OnC5H11)}-[Orn(4R-OH,5R-OH)]T[Hyp][hTyr(3S-OH,4S-OH)]T[Pro(3S-OH,4S-Me)]; lactam 1-C) the “number of intracellular viral RNA copies (virus internalization)” value (SFTSV [3]) was “significantly decreased”, the CC50 (in vitro) was 41.7 µM and the “efficacy of virus binding to cells versus vehicle” value (SFTSV [4]) was “did not have a significant difference”. For the same molecule, the SI (SARS-CoV-2) was 7.59, the IC50 (SARS-CoV-2; [9]) was 5.49 µM and the IC90 (SARS-CoV-2; [9]) was 8.55 µM. The “number and size of syncytia (fusion ability)” value (SFTSV [5]) was “decreased”, the “suppression of the entry of SFTSV strain HBMC5” value (SFTSV [2]) was “as efficiently as the strain WCH” and the SI (GTV) was 7.53. The IC50 (GTV; Guertu virus, Vero) was 5.54 µM, the IC90 (GTV; Guertu virus, Vero) was 9.62 µM and the “PLT (median, IQR)” value (SFTSV [6]) was 1054.5 (993.25, 1094) ×10^9/L and 950 (494.5, 1062.75) ×10^9/L and 1141 (1050, 1191) ×10^9/L. The “WBC (median, IQR)” value (SFTSV [6]) was 4.75 (4.35, 5.465) ×10^9/L and 4.72 (4.31, 6.195) ×10^9/L and 5.76 (5.28, 6.04) ×10^9/L, the body weight (SFTSV [6]) was “maintained; also recorded: slight decrease” and the “clinical signs of illness onset” value (SFTSV [6]) was “did not show typical clinical signs of illness onset”. For the same molecule, the “histopathological damage in the lung, H&E” value (SFTSV [6]) was “significantly ameliorated”, the “kidney lesions (renal tubulointerstitial hemorrhaging, edemas), H&E” value (SFTSV [6]) was “slight” and the “liver lesion (ballooning degeneration of hepatocytes), H&E” value (SFTSV [6]) was “significantly attenuated”. For the same molecule, the survival rate (SFTSV [6]) was 66.7% and 50.0%, the SI (SFTSV [1]) was 13.80 and the IC50 (SFTSV [1]) was 3.02 µM. It also gave an IC90 (SFTSV [1]) of 12.4 µM, an SI (HSV-1) of 6.12 and an IC50 (HSV-1; Human alphaherpesvirus 1, Vero) of 6.81 µM. For the same molecule, the IC90 (HSV-1; Human alphaherpesvirus 1, Vero) was 9.12 µM, the SI (HRTV) was 8.35 and the IC50 (HRTV; Heartland virus, Vero) was 4.99 µM. The IC90 (HRTV; Heartland virus, Vero) was 9.29 µM, the IC50 (DENV) was 3.24 µM and the SI (ZIKV) was 9.54. For the same molecule, the IC50 (ZIKV; Zika virus, Vero) was 4.37 µM, the IC90 (ZIKV; Zika virus, Vero) was 6.44 µM and the SI (CCHFV) was 3.86. The IC50 (CCHFV; [10]) was 10.8 µM, the IC90 (CCHFV; [10]) was 24.2 µM and the “reduction of intracellular viral RNA copies relative to the control” value (SFTSV [7]) was “over 10 times”.

With `C[C@@H]1[C@H](O)[C@@H](C)/C=C/C=C/CC/C=C/C=C/C=C/C=C/C(O[C@H]2O[C@H](C)[C@@H](O)[C@H](N)[C@@H]2O)CC2O[C@](O)(CC(O)C(O)CCC(O)CC(O)CC(O)CC(=O)O[C@H]1C)CC(O)C2C(=O)O` (some centres unmarked) [nystatin] the “mean inhibition rate of SFTSV infection” value (SFTSV [8]) was 8.67%.

With `COc1c(C)c2c(c(O)c1C/C=C(\C)CCC(=O)OCCN1CCOCC1)C(=O)OC2` [Mycophenolate mofetil] the CC50 (in vitro) was over 100 µM, the SI (SFTSV [1]) was over 10 and the IC50 (SFTSV [1]) was 0.57 µM. It also gave an IC90 (SFTSV [1]) of 1.52 µM.

For `Oc1ccc2ccccc2c1SSc1c(O)ccc2ccccc12` [IPA3, p21-activated kinase inhibitor III], the “mean inhibition rate of SFTSV infection” value (SFTSV [8]) was 43.22%.

Work on `CC(=O)Oc1ccccc1C(=O)Nc1ncc([N+](=O)[O-])s1` [Nitazoxanide] yielded a CC50 (in vitro) of over 100 µM, an IC50 (SFTSV [1]) of 11.1 µM and an IC90 (SFTSV [1]) of 25.3 µM.

`CN(C)CCCN1c2ccccc2Sc2ccc(Cl)cc21` [CPZ, chlorpromazine] gave an inhibition at 35 µM (SFTSV [8]; Severe fever with thrombocytopenia syndrome virus, Vero, read-out: mean inhibition rate of SFTSV infection) of 46.1%.

`COc1cccc(-c2ccc(NC(=O)C3=C(C(=O)O)CCC3)c(F)c2)c1` [Vidofludimus] gave a CC50 (in vitro) of over 100 µM, an SI (SFTSV [1]) of over 10 and an IC50 (SFTSV [1]) of 6.07 µM. The IC90 (SFTSV [1]) was 14.6 µM.

For `CCCCCOc1ccc(-c2cc(-c3ccc(C(=O)N[C@H]4C[C@@H](O)[C@@H](O)NC(=O)[C@@H]5[C@@H](O)[C@@H](C)CN5C(=O)[C@H]([C@H](O)CC(N)=O)NC(=O)[C@H]([C@H](O)[C@@H](O)c5ccc(O)c(OS(=O)(=O)O)c5)NC(=O)[C@@H]5C[C@@H](O)CN5C(=O)[C@H]([C@@H](C)O)NC4=O)cc3)no2)cc1` [Micafungin, micafungin] (X1-[Orn(4R-OH,5R-OH)]T[Hyp][hTyr(3S-OH,4S-OH,3'-OSO3H)][Gln(3R-OH)][Pro(3S-OH,4S-Me)]; lactam 1-C), the “inhibitory effect on SFTSV infection during the entry process” value (SFTSV [2]) is given as “less effective than that exerted by anidulafungin” and the IC50 (DENV) is given as 10.2 µM.
